Results as given in PMC6093650, “Antidepressive and anxiolytic effects of ostruthin, a TREK-1 channel activator” (PLoS ONE, 2018).
pEC50: −log10 of the molar value.

How the values were obtained:
c-Fos immunoreactivity = assay: anti-c-Fos immunostaining of mouse brain nuclei; assay type: in vivo, mice
Protocol: The mouse was put into an anesthetizing jar and isoflurane (>0.2 ml) was added to the jar. After confirming that mouse was deeply anesthetized, its brain was fixed by transcardiac perfusion with 4% paraformaldehyde in PBS. The brains were sliced coronally (100 μm in thickness) using a microslicer (PRO7, Dosaka, Kyoto, Japan). The free-floating slices were reacted with an anti-c-Fos antibody (1: 200, goat, Santa Cruz, Dallas, TX) dissolved in PBS containing 0.3% BSA and 0.3% Triton-X-100, at 4°C for 48 h. The immunoreaction was visualized using a secondary antibody (rabbit anti-goat IgG, Vectastain Elite ABC-HRP Kit, Vector Labs, Burlingame, CA) and 3,3'-Diaminobenzidine (DAB, Tokyo Chemical Industry, Tokyo, Japan) at room temperature in accordance with the manufacturer’s instructions.
For statistical analysis, the number of c-Fos-immunoreactive cells was quantified using the Image-J software. Briefly, fields (0.16 mm^2) of c-Fos immunoreactivity were acquired by a microscope IX70 (Olympus) using a CCD camera. DAB-positive nuclei, of which diameters were longer than 7 μm, were considered as anti-c-Fos-immunoreactive neurons. The immunoreactive cell numbers were normalized to cells/mm^2.

TREK-1 channel = biological target: T1, TREK-1 channel (Homo sapiens, UniProt O95069); assay: whole-cell patch-clamp of TREK-1 currents in TR-1 cells (293T stably expressing TREK-1); assay type: cell-based; conditions: TR-1 (293T) cells, 25°C, applied 5 min after whole-cell access, n = 5; read-out: EC50 of activation of whole-cell TREK-1 currents
T1 construct: expressed in transfected cells
T1 sequence (O95069 1-426): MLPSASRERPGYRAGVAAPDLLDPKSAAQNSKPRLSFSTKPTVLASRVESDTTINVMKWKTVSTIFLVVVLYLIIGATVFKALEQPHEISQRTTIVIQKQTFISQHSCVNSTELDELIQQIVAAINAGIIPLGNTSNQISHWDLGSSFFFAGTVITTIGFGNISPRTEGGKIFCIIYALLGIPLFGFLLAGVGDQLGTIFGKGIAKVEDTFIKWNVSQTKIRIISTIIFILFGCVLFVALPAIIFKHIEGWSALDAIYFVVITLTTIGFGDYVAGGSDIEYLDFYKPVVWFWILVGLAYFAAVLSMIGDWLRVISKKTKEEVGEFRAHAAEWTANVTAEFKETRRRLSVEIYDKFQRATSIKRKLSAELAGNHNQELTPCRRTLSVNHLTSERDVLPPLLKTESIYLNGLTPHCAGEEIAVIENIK
Excerpt: For recordings of K^+ channel currents, we prepared stable cell lines for TREK-1, TWIK-related acid-sensitive K^+ channel (TASK-1), strongly inwardly rectifying K^+ channel (Kir2.1), and human ether-a-go-go-related gene (HERG-1) channels and transiently expressed other channels in 293T cells using a calcium-phosphate transfection method. For the establishment of the stable lines, we used lentiviral vectors, and the preparation methods for the lentiviral vectors were described in our previous report. TR-1 cells, which stably expressed TREK-1 channel and were grown on a small cover glass (3 × 18 mm), were placed in a recording chamber with an internal volume of 200 μl. Whole-cell currents were recorded in Tyrode solution using an Axopatch 200B amplifier (Axon Instruments, Foster City, CA) at 25°C. […] Perfusion (100 μl/min) was continued to maintain the water level throughout recordings. pH and osmotic pressure of solutions were measured with a pH meter (Horiba, Kyoto, Japan) and a freezing point osmometer (Knauer, Berlin, Germany), respectively.
We previously prepared a lentiviral vector that expressed the TREK-1 channel and using this vector we established a cell line, TR-1, which stably expressed the channel. […] Immediately after whole-cell access, small outward currents were recorded in response to depolarizing step pulses (Fig 1A, 0 min). […]

[1] = test system: GABAergic mIPSCS in the amygdala neurons; assay: GABAergic mIPSCs in amygdala neurons (preliminary data); assay type: cell-based; conditions: 100 μM
[2] = 5 mg/kg, 30 min after tail suspension stress, n = 4

pEC50 (TREK-1 channel): 5.28
Structure (SMILES): CC(C)=CCC/C(C)=C/Cc1cc2ccc(=O)oc2cc1O [ostruthin]
stress-induced c-Fos immunoreactivity in most nuclei (PVN, PVT, CeA, BLA, DRD, DRV) (c-Fos immunoreactivity; [2]): no significant differences | stress-induced increase in c-Fos immunoreactivity in the lateral septum (LS) (c-Fos immunoreactivity; [2]): significantly suppressed | anti-c-Fos immunoreactivity in non-stressed animals (c-Fos immunoreactivity; fixed 30 min after administration, vs PBS (data not shown)): no difference | amplitude or frequency of GABAergic mIPSCS in the amygdala neurons [1]: no effect
